# Tests used:
# [1] = test system: P19 EC cells; assay: Induction of beating muscle in replated P19 EC aggregates (hanging-drop assay); format: cell-based, mouse; conditions: P19EC aggregates, day 10
# Method: END-2 cells and hES cells were cultured as described in Example 1. The hES2 cell line from ES Cell International Pte Ltd was used in all experiments. […] Co-cultures were then grown for up to 6 weeks and scored for the presence of areas of beating muscle from 5 days onwards. HepG2 cells, a carcinoma cell line resembling liver parenchymal cells (Knowles et al, (1980) Science 209:497-9), were cultured in DMEM plus 10% FCS and passaged twice weekly. […] Hanging-drop cultures of P19 EC cells were initiated and maintained in DMEM/Ham's F12 (1:1), as described previously (Mummery et al, 1991), using regular FCS while bulk production of P19 embryoid bodies in the presence or absence of END-2 conditioned medium for isolation of RNA for Northern blotting, was in the presence of charcoal-stripped FCS, as described (Mummery et al, 1991) to reduce background levels of cardiomyocyte differentiation caused by lipophilic substances possibly with retinoid-like activity in FCS. P19 clone 6 were cultured in aMEM and treated aMEM conditioned by END-2 cells. For electrophysiology, beating aggregates were dissociated using collagenase and replated on gelatine-coated coverslips. […]
# [2] = test system: Brachyury T; assay: Northern blot of Brachyury T expression in P19EC aggregates; format: cell-based, mouse; conditions: FIG. 10B
# Method: (§1) END-2 cells and hES cells were cultured as described in Example 1. The hES2 cell line from ES Cell International Pte Ltd was used in all experiments. […] Co-cultures were then grown for up to 6 weeks and scored for the presence of areas of beating muscle from 5 days onwards. HepG2 cells, a carcinoma cell line resembling liver parenchymal cells (Knowles et al, (1980) Science 209:497-9), were cultured in DMEM plus 10% FCS and passaged twice weekly. […] Hanging-drop cultures of P19 EC cells were initiated and maintained in DMEM/Ham's F12 (1:1), as described previously (Mummery et al, 1991), using regular FCS while bulk production of P19 embryoid bodies in the presence or absence of END-2 conditioned medium for isolation of RNA for Northern blotting, was in the presence of charcoal-stripped FCS, as described (Mummery et al, 1991) to reduce background levels of cardiomyocyte differentiation caused by lipophilic substances possibly with retinoid-like activity in FCS. P19 clone 6 were cultured in aMEM and treated aMEM conditioned by END-2 cells. For electrophysiology, beating aggregates were dissociated using collagenase and replated on gelatine-coated coverslips.
# RNA was isolated from P19 aggregates and poly A+RNA selected, as described previously (Mummery et al, 1990, Dev. Biol. 142: 406-413).
# Background differentiation levels are reduced virtually to zero if the FCS is passed over an activated charcoal column (DCC-FCS) to remove residual retinoids; in addition, differentiation is blocked by activin (van den Eijnden-van Raaij et al, 1991, Mech. Dev. 33:157-166). […] The P19EC assay system was preferred because these cells are feeder independent for undifferentiated growth. […] Moreover, the induction of Brachyury T is blocked by the additional presence of activin (FIG. 10B), consistent with its ability to block the formation of beating muscle in aggregates. The transient expression of Brachyury T is similar to that observed during early mesoderm differentiation during gastrulation of the mouse embryo.
# [3] = test system: hES-derived cardiomycytes; assay: Beating of hES-derived cardiomyocytes in response to pharmacological agonists; format: cell-based, human; conditions: hES2/END-2 co-culture derived cardiomyocytes; basal beating 45-60 times per minute
# Method: as §1
# The majority of the experiments described here were carried out using the hES2 cell line (Reubinoff et al, 2000). […] Oct-4 expression thus correlated with phenotypic characteristics of undifferentiated cells. hES cells were subcultured by transferring small clumps of undifferentiated cells either to new, mit.C-treated MEFs or confluent cultures of mit.C-treated END-2 cells. After approximately 5d under these conditions, epithelial cells became evident which over the next few days become fluid-filled cysts (FIG. 1A). […] In addition, by 10 d areas of rhythmically contracting cells in more solid aggregates become evident (FIG. 1A,3e) with a variety of overall morphologies (FIG. 1B,3e). […]
# [4] = test system: P19 EC cells; conditions: END-2 conditioned medium induced differentiation; cited from earlier work
compound,measurement,setting,value
"C[S+](C)[O-] [DMSO, dimethyl sulphoxide]",aggregates beating,[1],All aggregates beat
same,Brachyury T (early mesoderm marker) expression,"[2]; aggregation phase, first 3 days, Northern blot",induced
C[N+](C)(C)CCOC(N)=O [carbachol],beating of hES-derived cardiomyocytes in response to agonist,[3],upregulated
CC(C)NCC(O)c1ccc(O)c(O)c1 (centres unmarked) [isoprenaline],beating of hES-derived cardiomyocytes in response to agonist,[3],upregulated
CNC[C@H](O)c1cccc(O)c1 [phenylephrine],beating of hES-derived cardiomyocytes in response to agonist,[3],upregulated
activin: factor that blocks Brachyury T induction and the formation of beating muscle in aggregates,DMSO induced Brachyury T expression in presence of activin,[2]; P19EC aggregates,blocked
same,END-2 CM induced Brachyury T expression in additional presence of activin,[2]; P19EC aggregates,blocked
same,cardiomyocyte differentiation of P19 EC aggregates in presence of activin,[4],blocked
